Experimental data: US9284333B2, “Fused pyrroledicarboxamides and their use as pharmaceuticals” (SANOFI, priority 2012, dated 2016)

Target: Human TASK-1 channels (Homo sapiens (Human), UniProt O14649)
Assay: Determination of the activity on the TASK-1 channel in Xenopus oocytes (two-microelectrode voltage clamp)
Format: cell-based
Conditions: for IC50: human TASK-1 expressed in Xenopus oocytes, room temperature, read-out: IC50 value for TASK-1 inhibition; for inhibition at 5 µM: compound concentration 5 μM
Method in brief: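 Xenopus oocytes were injected with human TASK-1 cRNA and recorded two days later by two-microelectrode voltage clamp, holding at −90 mV with 500 ms steps to 40 mV. Superfusion used ND96, pH 7.4, at room temperature, with rising compound concentrations; percentage inhibition of control current was fitted to a dose-response curve for IC50.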

Human TASK-1 channels, sequence (O14649 whole entry): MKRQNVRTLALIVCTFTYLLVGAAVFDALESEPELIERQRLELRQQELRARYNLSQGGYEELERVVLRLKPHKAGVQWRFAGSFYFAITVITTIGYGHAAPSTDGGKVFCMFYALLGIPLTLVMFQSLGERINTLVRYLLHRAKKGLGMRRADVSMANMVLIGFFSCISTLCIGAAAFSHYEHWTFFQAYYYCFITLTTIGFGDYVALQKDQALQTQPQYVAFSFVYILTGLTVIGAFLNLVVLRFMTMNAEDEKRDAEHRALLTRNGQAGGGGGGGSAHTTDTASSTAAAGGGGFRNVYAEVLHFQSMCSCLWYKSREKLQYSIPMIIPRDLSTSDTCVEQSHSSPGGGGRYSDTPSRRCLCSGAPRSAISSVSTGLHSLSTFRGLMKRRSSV

**Q.** How did the IC50 turn out when `CC[C@@H](NC(=O)c1cc(C(=O)N[C@H](CC)c2ccccc2)n2c1COCC2)c1ccc(C(F)(F)F)nc1` [16jy, 3,4-Dihydro-1H-pyrrolo[2,1-c][1,4]oxazine-6,8-dicarboxylic acid 6-[((R)-1-phenyl-propyl)-amide] 8-{[(R)-1-(6-trifluoromethyl-pyridin-3-yl)-propyl]-amide}] was run?
**A.** 180 nM

**Q.** Which IC50 does the source give for `CCOC(=O)CNC(=O)c1cc(C(=O)N[C@H](CC)c2ccccc2)c2n1CCOC2` [16k, {[8-((R)-1-Phenyl-propylcarbamoyl)-3,4-dihydro-1H-pyrrolo[2,1-c][1,4]oxazine-6-carbonyl]-amino}-acetic acid ethyl ester] here?
**A.** 180 nM

**Q.** How did the IC50 turn out when `CC[C@H](NC(=O)c1cc(C(=O)N[C@H](CC)c2ncccn2)c2n1CCOC2)c1ccccc1` [16kb, 3,4-Dihydro-1H-pyrrolo[2,1-c][1,4]oxazine-6,8-dicarboxylic acid 6-[((S)-1-phenyl-propyl)-amide] 8-[((R)-1-pyrimidin-2-yl-propyl)-amide]] was run?
**A.** 620 nM

**Q.** Which IC50 does the source give for `CC[C@H](NC(=O)c1cc(C(=O)N[C@@H](CC)c2ncccn2)c2n1CCOC2)c1ccccc1` [16kc] here?
**A.** 1800 nM

**Q.** `CC[C@@H](NC(=O)c1cc(C(=O)N[C@H](CC)c2ncccn2)c2n1CCOC2)c1ccccc1` [16kd, 3,4-Dihydro-1H-pyrrolo[2,1-c][1,4]oxazine-6,8-dicarboxylic acid 6-[((R)-1-phenyl-propyl)-amide] 8-[((R)-1-pyrimidin-2-yl-propyl)-amide]] was tested. Which IC50 did it give?
**A.** 140 nM

**Q.** How did the IC50 turn out when `CC[C@H](NC(=O)c1cc(C(=O)N[C@H](CC)c2ccccc2)n2c1COCC2)c1ncccn1` [16ke, 3,4-Dihydro-1H-pyrrolo[2,1-c][1,4]oxazine-6,8-dicarboxylic acid 6-[((R)-1-phenyl-propyl)-amide] 8-[((S)-1-pyrimidin-2-yl-propyl)-amide]] was run?
**A.** 220 nM

**Q.** How did the inhibition at 5 µM turn out when `CC[C@H](NC(=O)c1cc(C(=O)N[C@H](CC)c2ccc(C(F)(F)F)nc2)c2n1CCOC2)c1ccccc1` [16kf, 3,4-Dihydro-1H-pyrrolo[2,1-c][1,4]oxazine-6,8-dicarboxylic acid 6-[((S)-1-phenyl-propyl)-amide] 8-{[(R)-1-(6-trifluoromethyl-pyridin-3-yl)-propyl]-amide}] was run?
**A.** 90%

**Q.** How did the inhibition at 5 µM turn out when `CC[C@H](NC(=O)c1cc(C(=O)N[C@H](C)c2ncccn2)c2n1CCOC2)c1ccccc1` [16kg, 3,4-Dihydro-1H-pyrrolo[2,1-c][1,4]oxazine-6,8-dicarboxylic acid 6-[((S)-1-phenyl-propyl)-amide] 8-[((R)-1-pyrimidin-2-yl-ethyl)-amide]] was run?
**A.** 70%

**Q.** How did the IC50 turn out when `CC[C@@H](NC(=O)c1cc(C(=O)N2CCOC[C@@H]2C)c2n1CCOC2)c1ccccc1` [16kh, 8-((S)-3-Methyl-morpholine-4-carbonyl)-3,4-dihydro-1H-pyrrolo[2,1-c][1,4]oxazine-6-carboxylic acid ((R)-1-phenyl-propyl)-amide] was run?
**A.** 990 nM

**Q.** Which IC50 does the source give for `CC[C@@H](NC(=O)c1cc(C(=O)N2CCC[C@@H]2C)c2n1CCOC2)c1ccccc1` [16ki, 8-((S)-2-Methyl-pyrrolidine-1-carbonyl)-3,4-dihydro-1H-pyrrolo[2,1-c][1,4]oxazine-6-carboxylic acid ((R)-1-phenyl-propyl)-amide] here?
**A.** 200 nM

**Q.** For `CC[C@@H](NC(=O)c1cc(C(=O)N2CCC[C@H]2C)c2n1CCOC2)c1ccccc1` [16kj, 8-((R)-2-Methyl-pyrrolidine-1-carbonyl)-3,4-dihydro-1H-pyrrolo[2,1-c][1,4]oxazine-6-carboxylic acid ((R)-1-phenyl-propyl)-amide], which IC50 is on record?
**A.** 270 nM

**Q.** For `CC[C@@H](NC(=O)c1cc(C(=O)N2CCC[C@@H]2COC)c2n1CCOC2)c1ccccc1` [16kk, 8-((R)-2-Methoxymethyl-pyrrolidine-1-carbonyl)-3,4-dihydro-1H-pyrrolo[2,1-c][1,4]oxazine-6-carboxylic acid ((R)-1-phenyl-propyl)-amide], which IC50 is on record?
**A.** 130 nM

**Q.** `CC[C@@H](NC(=O)c1cc(C(=O)N2CCC[C@@H]2C(C)C)c2n1CCOC2)c1ccccc1` [16kl, 8-((R)-2-Isopropyl-pyrrolidine-1-carbonyl)-3,4-dihydro-1H-pyrrolo[2,1-c][1,4]oxazine-6-carboxylic acid ((R)-1-phenyl-propyl)-amide] was tested. Which IC50 did it give?
**A.** 210 nM

**Q.** How did the IC50 turn out when `CC[C@@H](NC(=O)c1cc(C(=O)N2CCC[C@H]2C(C)C)c2n1CCOC2)c1ccccc1` [16km, 8-((S)-2-Isopropyl-pyrrolidine-1-carbonyl)-3,4-dihydro-1H-pyrrolo[2,1-c][1,4]oxazine-6-carboxylic acid ((R)-1-phenyl-propyl)-amide] was run?
**A.** 390 nM

**Q.** Which IC50 does the source give for `CC[C@@H](NC(=O)c1cc(C(=O)N[C@H](C)c2cnccn2)c2n1CCOC2)c1ccc(F)cc1Cl` [16kn, 3,4-Dihydro-1H-pyrrolo[2,1-c][1,4]oxazine-6,8-dicarboxylic acid 6-{[(R)-1-(2-chloro-4-fluoro-phenyl)-propyl]-amide} 8-[((R)-1-pyrazin-2-yl-ethyl)-amide]] here?
**A.** 130 nM

**Q.** `CC[C@@H](NC(=O)c1cc(C(=O)NCc2cnccn2)c2n1CCOC2)c1ccc(F)cc1Cl` [16ko, 3,4-Dihydro-1H-pyrrolo[2,1-c][1,4]oxazine-6,8-dicarboxylic acid 6-{[(R)-1-(2-chloro-4-fluoro-phenyl)-propyl]-amide} 8-[(pyrazin-2-ylmethyl)-amide]] was tested. Which IC50 did it give?
**A.** 310 nM

**Q.** `CC[C@@H](NC(=O)c1cc(C(=O)NC(C)c2ncccn2)c2n1CCOC2)c1ccc(F)cc1Cl` (stereo partly drawn) [16kp, 3,4-Dihydro-1H-pyrrolo[2,1-c][1,4]oxazine-6,8-dicarboxylic acid 6-{[(R)-1-(2-chloro-4-fluoro-phenyl)-propyl]-amide} 8-[(1-pyrimidin-2-yl-ethyl)-amide]] was tested. Which IC50 did it give?
**A.** 280 nM

**Q.** `CC[C@@H](NC(=O)c1cc(C(=O)N2CCC[C@@H]2C)n2c1SCC2)c1ccccc1` [16ks, 5-((S)-2-Methyl-pyrrolidine-1-carbonyl)-2,3-dihydro-pyrrolo[2,1-b]thiazole-7-carboxylic acid ((R)-1-phenyl-propyl)-amide] was tested. Which IC50 did it give?
**A.** 37 nM

**Q.** `CC[C@@H](NC(=O)c1cc(C(=O)N[C@H](C)c2ccc(F)cc2)n2c1SCC2)c1ccccc1` [16kt, 2,3-Dihydro-pyrrolo[2,1-b]thiazole-5,7-dicarboxylic acid 5-{[(R)-1-(4-fluoro-phenyl)-ethyl]-amide} 7-[((R)-1-phenyl-propyl)-amide]] was tested. Which IC50 did it give?
**A.** 27 nM

**Q.** For `CC[C@@H](NC(=O)c1cc(C(=O)N[C@H](C)c2ccc(F)cc2)c2n1CCS2)c1ccccc1` [16ku, 2,3-Dihydro-pyrrolo[2,1-b]thiazole-5,7-dicarboxylic acid 7-{[(R)-1-(4-fluoro-phenyl)-ethyl]-amide} 5-[((R)-1-phenyl-propyl)-amide]], which IC50 is on record?
**A.** 87 nM

**Q.** Which IC50 does the source give for `CC[C@@H](NC(=O)c1cc(C(=O)N[C@H](CC)c2ccccc2)n2c1SCC2)c1ccccc1` [16kv, 2,3-Dihydro-pyrrolo[2,1-b]thiazole-5,7-dicarboxylic acid bis-[((R)-1-phenyl-propyl)-amide]] here?
**A.** 320 nM

**Q.** For `CC[C@@H](NC(=O)c1cc(C(=O)N[C@H](C)c2ccc(F)cc2)c2n1CSC2)c1ccccc1` [16kw, 1H-Pyrrolo[1,2-c]thiazole-5,7-dicarboxylic acid 7-{[(R)-1-(4-fluoro-phenyl)-ethyl]-amide} 5-[((R)-1-phenyl-propyl)-amide]], which IC50 is on record?
**A.** 95 nM

**Q.** With `CC[C@@H](NC(=O)c1cc(C(=O)N2CCC[C@@H]2C)c2n1CSC2)c1ccccc1` [16kx, 7-((S)-2-Methyl-pyrrolidine-1-carbonyl)-1H-pyrrolo[1,2-c]thiazole-5-carboxylic acid ((R)-1-phenyl-propyl)-amide] as the compound, how does the IC50 read?
**A.** 100 nM

**Q.** With `CC[C@@H](NC(=O)c1cc(C(=O)N[C@H](C)c2ccc(F)cc2)n2c1CSC2)c1ccccc1` [16ky, 1H-Pyrrolo[1,2-c]thiazole-5,7-dicarboxylic acid 5-{[(R)-1-(4-fluoro-phenyl)-ethyl]-amide} 7-[((R)-1-phenyl-propyl)-amide]] as the compound, how does the IC50 read?
**A.** 33 nM

**Q.** For `CC[C@@H](NC(=O)c1cc(C(=O)N2CCC[C@@H]2C)n2c1CSCC2)c1ccccc1` [16kz, 6-((S)-2-Methyl-pyrrolidine-1-carbonyl)-3,4-hihydro-1H-pyrrolo[2,1-c][1,4]thiazine-8-carboxylic acid ((R)-1-phenyl-propyl)-amide], which IC50 is on record?
**A.** 270 nM

**Q.** For `CCOC(=O)[C@H](C)N(C)C(=O)c1cc(C(=O)N[C@H](CC)c2ccccc2)c2n1CCOC2` [16l, (S)-2-{Methyl-[8-((R)-1-phenyl-propylcarbamoyl)-3,4-dihydro-1H-pyrrolo[2,1-c][1,4]oxazine-6-carbonyl]-amino}-propionic acid ethyl ester], which IC50 is on record?
**A.** 170 nM

**Q.** `CC[C@@H](NC(=O)c1cc(C(=O)N[C@H](C)c2ccc(F)cc2)n2c1CSCC2)c1ccccc1` [16la, 3,4-Dihydro-1H-pyrrolo[2,1-c][1,4]thiazine-6,8-dicarboxylic acid 6-{[(R)-1-(4-fluoro-phenyl)-ethyl]-amide} 8-[((R)-1-phenyl-propyl)-amide]] was tested. Which IC50 did it give?
**A.** 150 nM

**Q.** `CC[C@@H](NC(=O)c1cc(C(=O)N[C@H](CC)c2ncccn2)c2n1CCOC2)c1ccc(C(F)(F)F)cc1` [16lb, 3,4-Dihydro-1H-pyrrolo[2,1-c][1,4]oxazine-6,8-dicarboxylic acid 8-[((R)-1-pyrimidin-2-yl-propyl)-amide] 6-{[(R)-1-(4-trifluoromethyl-phenyl)-propyl]-amide}] was tested. Which IC50 did it give?
**A.** 65 nM

**Q.** For `CC[C@@H](NC(=O)c1cc(C(=O)NCC2CC2)n2c1COCC2)c1ccccc1Cl` [16ld, 3,4-Dihydro-1H-pyrrolo[2,1-c][1,4]oxazine-6,8-dicarboxylic acid 8-{[(R)-1-(2-chloro-phenyl)-propyl]-amide} 6-cyclopropylmethyl-amide], which IC50 is on record?
**A.** 80 nM

**Q.** Which IC50 does the source give for `CC[C@@H](NC(=O)c1cc(C(=O)N2CCC[C@@H]2C)n2c1C(C)OCC2)c1ccccc1` (stereo partly drawn) [16lf, 1-Methyl-6-((S)-2-methyl-pyrrolidine-1-carbonyl)-3,4-dihydro-1H-pyrrolo[2,1-c][1,4]oxazine-8-carboxylic acid ((R)-1-phenyl-propyl)-amide] here?
**A.** 110 nM

**Q.** For `CC[C@@H](NC(=O)c1cc(C(=O)N[C@H](CC)c2ccc(F)cc2)n2c1C(C)OCC2)c1ccccc1` (stereo partly shown) [16lh], which IC50 is on record?
**A.** 190 nM
